Experimental data from PMC11475281, “A Novel Liver Cancer-Selective Histone Deacetylase Inhibitor Is Effective against Hepatocellular Carcinoma and Induces Durable Responses with Immunotherapy” (ACS Pharmacology & Translational Science, 2024).

Legend:
[1] = system: Hep-G2 (HCC); experiment: MTS cell viability assay, 72 h; format: cell-based, human; details: Table S2; read-out: Anti-proliferation IC50 Hep-G2
Excerpt: We then screened STR-V-53 and all the synthesized glycosylated HDACi for their effects on the viability of three cell lines: A549 (lung adenocarcinoma), Hep-G2 (HCC), and VERO (a normal kidney epithelial cell). We used SORA and STR-V-48, a previously disclosed nonglycosylated compound, as controls.[25] […] Additionally, compound STR-V-167, the peracetylated analog of STR-V-53, largely retained the Hep-G2 selectivity of STR-V-53 (Table S2). Subsequently, we evaluated the effects of STR-V-53 on cell proliferation using a panel of human HCC cell lines (Huh-7, SK-Hep-1, and Hep3B) as well as Kupffer cells (liver resident macrophages) by MTS assay. We observed that STR-V-53 is 7- to 16-fold more cytotoxic against these HCC cell lines relative to the Kupffer cells (Figure 1g). […] Based on their weak HDAC and cell proliferation inhibition activities, we de-emphasized further evaluation of the class III compounds.
10-017-CV), supplemented with 10% fetal bovine serum (FBS) (Corning, 35-010-CV). Hep-G2 cells were cultured in phenol red-free Minimum Essential Medium (MEM) (Corning, 17-305-CV), supplemented with 10% fetal bovine serum (FBS). SK-Hep-1 in ATCC-formulated EMEM (ATCC® 30–2003™); Huh-7 in DMEM (containing 4 mM L-glutamine and 1 g/L glucose) with […]
Kupffer Cell Media (Sekisui XenoTech, LLC, Cat. #K8700). Cells were seeded into a 96-well plate (2000 counts/100uL) for 24 h prior to treatment and then treated with various drug concentrations for 72 h. All drugs were dissolved in media with DMSO concentration maintained at 1%. The effect of compounds on cell viability was measured using the MTS assay (CellTiter 96 Aqueous One Solution and CellTiter 96 Non-Radioactive Cell Proliferation Assays, Promega, Madison, WI) as described by the manufacturer. IC50s were determined using Prism GraphPad 8. […]

[2] = system: Hep-G2 HCC cells; experiment: Cell cycle analysis by flow cytometry; format: cell-based, human; details: 48 h
Procedure: To determine if the HCC cell selective cytotoxicity of STR-V-53 results from its perturbation of the cell cycle pattern, we evaluated the effect of STR-V-53 on the cycle progression by flow cytometry using SAHA as a control (Figure 4).
Figure 4 Effect of STR-V-53 treatment on HCC cell cycle progression. (a–c) Human Hep-G2 HCC cells were cultured until 80% confluence in a 10 cm Petri dish. The cells were serum-starved overnight before drug treatment. Then, the cells were treated with 10 mL of 0.1% DMSO medium and 0.1% DMSO solution of SAHA (5 μM) or STR-V-53 (15 μM) for 48 h. Control group (ai); SAHA (5 μM)-treated group (aii), and STR-V-53 (15 μM)-treated group (aiii and biii). (c) Quantification of the cell cycle data from two independent experiments. Bars show mean plus standard deviation; *P < 0.0332; **P < 0.0021; ***P < 0.0002; ****P < 0.00001.
MIDI 4-20% gel (Biorad, cat. 5671093) and ran at 150 V for 70 min. […] After washing with TBS-T 3x5 mins, bands were quantified using the Odyssey CLx Image system.
Hep-G2 or VERO cells were seeded (2500 to 4,000 counts/well) into 96-well plates, in which each well contains 100 µL media. […] After 2.5-4 h incubation, the plates were read using a multiplate reader at 490 nm. […]
Then cells were treated with another 500 µL of 100 ug/mL PI staining at room temperature for 30 min. The cell cycle was analyzed with BD FACS Aria Illu analyzer, and the data were […]

[3] = system: RIL-175 murine HCC
Excerpt: (d) Body weight change of tumor-bearing mice in the four treatment groups.
Next, we evaluated the in vivo efficacy of STR-V-53 alone or combined with an anti-PD1
antibody in a p53-null murine HCC model.
into the subcapsular region of the liver parenchyma in C57Bl/6 mice, and tumor growth was
monitored by high-frequency ultrasonography. When tumors reached ~5 mm in diameter, mice
were randomly assigned to one of the four treatment groups (n=12 mice): DMA/ CRH/Water
(10%/20%/70%) (control), STR-V-53 (25mg/kg daily by i.p. for 3 weeks), anti-PD1 antibody
(10mg/kg thrice a week for 3 weeks), or combination of STR-V-53 and anti-PD1 antibody. Anti-
PD1 antibody treatment was administered i.p. for a total of 9 injections. Tumor growth and body
weight were measured every three days by ultrasound imaging, and tumor size was calculated as
0.5×length×width2. Per protocol, moribund status was used as the endpoint, and moribundity
the starting date, body condition score of more than 2, and tumor size of more than 15 mm in
diameter. Data were processed using GraphPad Prism 8, and survival analysis was performed

O=C(CCCCCCn1cc(-c2ccc3cc(O[C@H]4O[C@H](CO)[C@@H](O)[C@H](O)[C@H]4O)ccc3c2)nn1)NO [STR-V-114]
IC50 [1]: 6.7 ± 1.6 µM

O=C(CCCCCCn1cc(-c2ccc(O[C@H]3O[C@H](CO)[C@@H](O)[C@H](O)[C@H]3O)cc2)nn1)NO [STR-V-53]
Cell cycle progression ([2]; 15 μM): significant S phase arrest
Body weight change of tumor-bearing mice (weight loss) ([3]; RIL-175 model, 12 mice per group): 4/12
Tumor growth ([3]; RIL-175 model, n = 12): minor effect on tumor growth
Overall survival (Kaplan–Meier) ([3]; RIL-175 model, n = 12, vs IgG control): no impact on survival
Overt toxicity during the treatment period ([3]; RIL-175 tumor-bearing mice): no significant overt toxicity

O=C(CCCCCCn1cc(-c2ccc(O[C@@H]3O[C@H](CO)[C@@H](O)[C@H](O)[C@H]3O)cc2)nn1)NO [STR-I-195]
IC50 [1]: 22.3 ± 2 µM

O=C(CCCCCCC(=O)Nc1ccccc1)NO [SAHA, vorinostat, reference compound]
Cell cycle progression ([2]; 5 μM): significant S phase arrest
